The text below walks through data of patent US20110237640A1, “PYRAZOLE PHENYL DERIVATIVES” (priority 2004, published 2011).

In assay [1] the target is T1, PPARδ receptor (GST-PPAR-LBD fusion protein) (Homo sapiens, UniProt Q03181).
T1 construct: PPARδ (aa 139 to 442); made in house; host or cells: E. coli BL21(pLysS)
T1 sequence (Q03181 139-441 limits assumed): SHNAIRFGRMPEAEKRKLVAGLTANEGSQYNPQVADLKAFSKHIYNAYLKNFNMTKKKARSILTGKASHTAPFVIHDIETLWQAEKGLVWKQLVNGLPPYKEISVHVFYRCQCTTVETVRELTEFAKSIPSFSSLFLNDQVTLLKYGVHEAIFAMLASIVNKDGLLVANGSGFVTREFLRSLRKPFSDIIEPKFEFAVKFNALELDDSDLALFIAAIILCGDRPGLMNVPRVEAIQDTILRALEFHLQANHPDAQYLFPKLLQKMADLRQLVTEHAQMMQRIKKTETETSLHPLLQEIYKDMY
In words: PPARδ radioligand binding assay (SPA). The source says: (§1) Full-length cDNA clones for humans PPARδ and PPARα and mouse PPARγ were obtained by RT-PCR from human adipose and mouse liver cRNA, respectively, cloned into plasmid vectors and verified by DNA sequencing. Bacterial and mammalian expression vectors were constructed to produce glutathione-s-transferase (GST) and Gal4 DNA binding domain proteins fused to the ligand binding domains (LBD) of PPARδ (aa 139 to 442), PPARγ (aa 174 to 476) and PPARα (aa 167 to 469). To accomplish this, the portions of the cloned sequences encoding the LBDs were amplified from the full-length clones by PCR and then subcloned into the plasmid vectors. Final clones were verified by DNA sequence analysis.
(§2) Induction, expression, and purification of GST-LBD fusion proteins were performed in E. coli strain BL21(pLysS) cells by standard methods (Ref: Current Protocols in Molecular Biology, Wiley Press, edited by Ausubel et al.).
PPARδ receptor binding was assayed in HNM10 (50 mM Hepes, pH 7.4, 10 mM NaCl, 5 mM MgCl2, 0.15 mg/ml fatty acid-free BSA and 15 mM DTT). […] Radioligand was added and the reaction incubated at RT for 1 h and scintillation proximity counting performed in the presence of test compounds was determined. All binding assays were performed in 96 well plates and the amount of bound ligand was measured on a Packard TopCount using OptiPlates (Packard). […]

In assay [2] the target is T2, GST-PPARα-LBD fusion protein (Homo sapiens, UniProt Q07869).
T2 construct: PPARα (aa 167 to 469); made in house; host or cells: E. coli BL21(pLysS)
T2 sequence (Q07869 167-468 limits assumed): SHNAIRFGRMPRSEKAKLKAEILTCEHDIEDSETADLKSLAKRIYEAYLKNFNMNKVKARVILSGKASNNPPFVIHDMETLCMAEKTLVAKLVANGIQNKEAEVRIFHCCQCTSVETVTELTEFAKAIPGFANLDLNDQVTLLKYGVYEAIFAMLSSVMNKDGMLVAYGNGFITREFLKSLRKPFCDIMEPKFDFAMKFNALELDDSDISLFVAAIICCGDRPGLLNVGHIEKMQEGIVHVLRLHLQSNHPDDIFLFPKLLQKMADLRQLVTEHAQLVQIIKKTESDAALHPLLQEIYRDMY
Kind of assay: PPARα radioligand binding assay (SPA).
From the text: as §1, §2
PPARαreceptor binding was assayed in TKE50 (50 mM Tris-HCl, pH 8, 50 mM KCl, 2 mM EDTA, 0.1 mg/ml fatty acid-free BSA and 10 mM DTT). […] All binding assays were performed in 96 well plates and the amount of bound ligand measured on a Packard TopCount using OptiPlates (Packard). Nonspecific binding was determined in the presence of 10^−4 M unlabelled compound. […]

In assay [3] the target is T3, pFA-PPARα-LBD in BHK21 cells (Homo sapiens, UniProt Q07869).
T3 construct: PPARα (aa 167 to 469); expressed in transfected cells; host or cells: BHK21 (ATCC CCL10)
T3 sequence (Q07869 167-468 limits assumed): T2 sequence (Q07869 167-468 limits assumed)
Kind of assay: Luciferase transcriptional reporter gene assay (transactivation), PPARα. In kind it is cell-based. Conditions: for EC50: 24 hours with compound; for PPARα maximal activation (% of reference compound): reference PPARα compound set to 100%.
From the text: as §1
(§3) Baby hamster kidney cells (BHK21 ATCC CCL10) were grown in DMEM medium containing 10% FBS at 37° C. in a […]:5% CO2 atmosphere. Cells were seeded in 6 well plates at a density of 10^5 cells/well and then batch-transfected with either the pFA-PPARδ-LBD, pFA-PPARγ-LBD or pFA-PPARα-LBD expression plasmids plus a reporter plasmid (to monitor transfection efficiency). […] Six hours following transfection, the cells were harvested by trypsinization and seeded in 96 well plates at a density of 10^4 cells/well. After 24 hours the medium was removed and replaced with 100 ul of phenol red-free medium containing the corresponding test compounds or control ligands (at a final DMSO concentration of 0.1%). Following incubation of the cells for 24 hours with compounds, 50 μl of the supernatant was discarded and then 50 μl of Luciferase Constant—Light Reagent (Roche Molecular Biochemicals) was added to lyse the cells and initiate the luciferase reaction. Luminescence for luciferase was measured in a Packard TopCount. Transcriptional activation in the presence of a test substance was expressed as fold-activation over cells incubated in the absence of the substance. The signals were normalized against plate-specific controls (DMSO alone) and the fold-stimulation of luciferase activity observed with specific and selective PPARα((2(S)-2-(2-benzoyl-phenylamino)-3-{4-[2-(5-methyl-2-phenyl-oxazol-4-yl)-ethoxy]-phenyl}-propionic acid), PPARγ (Rosiglitazone) and PPARδ ({2-methyl-4-[4-methyl-2-(4-trifluoromethyl-phenyl)-thiazol-5-ylmethylsulfanyl]-phenoxy}-acetic acid) reference compounds was set to 100%. EC50 values were calculated using the XLfit program (ID Business Solutions Ltd. UK).
For orientation: In a reporter assay the amount or activity of a reporter protein is the signal.

Assay [4] concerns the target T4, GST-PPARγ-LBD fusion protein (Mus musculus, UniProt P37238).
T4 construct: PPARγ (aa 174 to 476); made in house; host or cells: E. coli BL21(pLysS)
T4 sequence (P37238 204-505): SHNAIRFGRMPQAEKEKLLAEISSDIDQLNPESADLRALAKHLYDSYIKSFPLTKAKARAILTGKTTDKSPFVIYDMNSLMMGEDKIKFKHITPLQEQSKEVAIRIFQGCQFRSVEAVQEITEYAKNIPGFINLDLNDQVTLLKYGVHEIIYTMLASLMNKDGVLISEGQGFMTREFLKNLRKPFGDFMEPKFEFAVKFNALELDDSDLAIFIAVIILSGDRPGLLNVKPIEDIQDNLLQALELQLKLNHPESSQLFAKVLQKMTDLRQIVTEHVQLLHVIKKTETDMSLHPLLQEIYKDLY
In words: PPARγ radioligand binding assay (SPA).
From the text: as §1, §2
PPARγ receptor binding was assayed in TKE50 (50 mM Tris-HCl, pH 8, 50 mM KCl, 2 mM EDTA, 0.1 mg/ml fatty acid-free BSA and 10 mM DTT). […] All binding assays were performed in 96 well plates and the amount of bound ligand measured on a Packard TopCount using OptiPlates (Packard). Nonspecific binding was determined in the presence of 10^−4 M unlabelled compound. […]

Assay [5] deals with T5, pFA-PPARδ-LBD in BHK21 cells (Homo sapiens, UniProt Q03181).
T5 construct: PPARδ (aa 139 to 442); expressed in transfected cells; host or cells: BHK21 (ATCC CCL10)
T5 sequence (Q03181 139-441 limits assumed): T1 sequence (Q03181 139-441 limits assumed)
Kind of assay: Luciferase transcriptional reporter gene assay (transactivation), PPARδ. In kind it is cell-based. Conditions: for EC50: 24 hours with compound; for PPARδ efficacy relative to reference compound: reference PPARδ compound set to 100%.
From the text: as §1, §3

Bounds are passed on as bounds.

As a reminder, the IC50 is the point on the concentration scale where inhibition reaches its midpoint. Low values mean inhibition by little substance, high ones a need for much substance. A word on the EC50: it is the concentration needed to bring the measured effect to its halfway point. For the compound `Cc1cc(OCc2cc(-c3ccc(OC(F)(F)F)cc3)nn2C)ccc1OC(C)(C)C(=O)O` [Example 1, 2-Methyl-2-{2-methyl-4-[2-methyl-5-(4-trifluoromethoxy-phenyl)-2H-pyrazol-3-ylmethoxy]-phenoxy}-propionic acid], the IC50 in assay [1] is 0.144 µM; in assay [2] it was 0.166 µM; in assay [4] it was at least 10 µM. For the same compound, the EC50 in assay [3] amounted to 0.38 µM; in assay [5] it was 0.2 µM. Moreover, in assay [3], the “PPARα maximal activation (% of reference compound)” value was determined as 100%. For the same compound, the “PPARδ efficacy relative to reference compound” value in assay [5] amounted to 59%.

As to `Cc1cc(OCc2cc(-c3ccc(OC(F)(F)F)cc3)nn2CC(F)(F)F)ccc1OC(C)(C)C(=O)O` [Example 6, 2-Methyl-2-{2-methyl-4-[2-(2,2,2-trifluoro-ethyl)-5-(4-trifluoromethoxy-phenyl)-2H-pyrazol-3-ylmethoxy]-phenoxy}-propionic acid], the IC50 in assay [1] was 0.222 µM; in assay [2], 0.212 µM; in assay [4] it was at least 10 µM. In addition, the EC50 in assay [3] amounted to 0.16 µM; in assay [5], 0.096 µM. Also, the “PPARα maximal activation (% of reference compound)” value in assay [3] came to 120%. Moreover, in assay [5], the “PPARδ efficacy relative to reference compound” value came to 140%.
